Several values for one entry are separate records, joined by “and”; a condition that tells them apart may be missing. Identical values can stand only once.
Tested on: adolescents with Single Ventricle Heart Disease who underwent Fontan palliation
Test: FALD study (FUEL Extension): Enhanced Liver Fibrosis (ELF) score from serum HA, PIIINP, TIMP-1
Type: in vivo, human
Parameters: key to Baseline ELF, Mean (SD) / ELF Score, Post Baseline: ELF score: <7.7 none/mild, 7.7-9.8 moderate, 9.8-11.3 severe, >11.3 cirrhosis
Source text: The FALD study, ClinicalTrials.gov Identifier: NCT03430583, which is incorporated herein by reference in its entirety, was an open-label extension study that integrated with the FUEL Extension Trial. […] Both the U− cohort and the U+ cohort had liver stiffness measured by ultrasound and MR elastography (where available), and ELF biomarkers analyzed, as described above. […] The Enhanced Liver Fibrosis (ELF) scores were based on the serum levels of hyaluronic acid (HA), amino-terminal propeptide of type III collagen (PIIINP), and tissue inhibitor of metalloproteinase-1 (TIMP-1). Testing was performed by the FUEL-OLE Central Laboratory using the serum samples. In accordance with prior studies, we assigned those patients with scores of <7.7 to the no-fibrosis or mild fibrosis group, 7.7-9.8 to the moderate fibrosis group, 9.8-11.3 to the severe fibrosis group, and >11.3 to the cirrhosis group. The primary outcome measure of the FALD study was the range of liver stiffness in adolescents with Single Ventricle Heart Disease who underwent Fontan palliation. Secondary outcome measures included the effect of drug therapy on liver stiffness, and the effect of drug therapy on Enhanced Liver Fibrosis (ELF) score. See Clinical Trials.gov identifier NCT03430583, at p. 3. It is to be understood that present invention contemplates udenafil drug products that are therapeutically equivalent to the udenafil drug products of the present invention.

[1] = Cohort U+ & U− Pooled, baseline ELF Cirrhosis (N 17)
[2] = Cohort U+ & U− Pooled, baseline ELF moderate fibrosis (N 20)
[3] = Cohort U+ & U− Pooled, baseline ELF moderate fibrosis (N 20), listed as udenafil
[4] = Cohort U+ & U− Pooled, baseline ELF severe fibrosis (N 36)
[5] = Cohort U+, baseline ELF Cirrhosis (N 9)
[6] = Cohort U+, baseline ELF moderate fibrosis (N 8)
[7] = Cohort U+, baseline ELF severe fibrosis (N 15)
[8] = Cohort U− (udenafil for 52 weeks), individual subject
[9] = Cohort U−, baseline ELF Cirrhosis (N 8)
[10] = Cohort U−, baseline ELF moderate fibrosis (N 12)
[11] = Cohort U−, baseline ELF moderate fibrosis (N 12), listed as udenafil
[12] = Cohort U−, baseline ELF severe fibrosis (N 21)
[13] = FALD, cohort U+ (78 weeks udenafil)

For `CCCOc1ccc(S(=O)(=O)NCCC2CCCN2C)cc1-c1nc2c(CCC)nn(C)c2c(=O)[nH]1` (stereo not shown) [Udenafil, udenafil], the “Patients with Improved ELF fibrosis category” value (Cohort U+ & U− Pooled, 41/73) was 41/73 (56%) Improved, the “Patients with post baseline ELF score Mild, n (%)” value [1] was 0 and the “Patients with post baseline ELF score Sev, n (%)” value [1] was 13 (76%). The “Patients with post baseline ELF score Sev, n (%)” value (Cohort U+ & U− Pooled, baseline ELF Cirrhosis (N 17), listed as udenafil) was 6, the “Patients with post baseline ELF score Mild, n (%)” value [2] was 1 (5%) and the “Patients with post baseline ELF score Sev, n (%)” value [2] was 8 (40%). For the same molecule, the “Patients with post baseline ELF score Mild, n (%)” value [3] was 1, the “Patients with post baseline ELF score Sev, n (%)” value [3] was 8 and the “Patients with post baseline ELF score Mild, n (%)” value [4] was 0. The “Patients with post baseline ELF score Sev, n (%)” value [4] was 13 (36%), the “Patients with post baseline ELF score Sev, n (%)” value (Cohort U+ & U− Pooled, baseline ELF severe fibrosis (N 36), listed as udenafil) was 8 and the “Patients with Improved ELF fibrosis category” value (Cohort U+, 19/32) was 19/32 (59%) Improved. For the same molecule, the “Patients with post baseline ELF score Mild, n (%)” value [5] was 0, the “Patients with post baseline ELF score Sev, n (%)” value [5] was 7 (78%) and the “Patients with post baseline ELF score Sev, n (%)” value (Cohort U+, baseline ELF Cirrhosis (N 9), listed as udenafil) was 7. For the same molecule, the “Patients with post baseline ELF score Mild, n (%)” value [6] was 0, the “Patients with post baseline ELF score Sev, n (%)” value [6] was 0 and the “Patients with post baseline ELF score Mild, n (%)” value [7] was 0. For the same molecule, the “Patients with post baseline ELF score Sev, n (%)” value [7] was 5 (33%), the “Patients with post baseline ELF score Sev, n (%)” value (Cohort U+, baseline ELF severe fibrosis (N 15), listed as udenafil) was 5 and the “ELF Score, % Change from Baseline” value [8] was −7.61% and −11.19% and −20.06% and −15.92% and 10.85% and 9.365%. The “ELF Score, Change from Baseline” value [8] was −0.78 and −1.22 and −2.03 and −1.85 and 0.97 and 0.9 and 0.26, the “ELF Score, Post Baseline” value (Cohort U− (udenafil for 52 weeks), individual subject, Post Baseline visit (52 week)) was 9.47 and 9.68 and 8.09 and 9.77 and 9.91 and 10.51 and 9.67 and the “Patients with Improved ELF fibrosis category” value (Cohort U−, 22/41) was 22/41 (54%) Improved. The “Patients with post baseline ELF score Mild, n (%)” value [9] was 0, the “Patients with post baseline ELF score Sev, n (%)” value [9] was 6 (75%) and the “Patients with post baseline ELF score Sev, n (%)” value (Cohort U−, baseline ELF Cirrhosis (N 8), listed as udenafil) was 6. For the same molecule, the “Patients with post baseline ELF score Mild, n (%)” value [10] was 1 (8%), the “Patients with post baseline ELF score Sev, n (%)” value [10] was 8 (67%) and the “Patients with post baseline ELF score Mild, n (%)” value [11] was 1. For the same molecule, the “Patients with post baseline ELF score Sev, n (%)” value [11] was 8, the “Patients with post baseline ELF score Mild, n (%)” value [12] was 0 and the “Patients with post baseline ELF score Sev, n (%)” value [12] was 8 (38%). The “Patients with post baseline ELF score Sev, n (%)” value (Cohort U−, baseline ELF severe fibrosis (N 21), listed as udenafil) was 8, the “ELF Percent Change: Week 52-Baseline, Median” value (FALD, Total) was −7.2% and the Week 52 ELF, Median (FALD, Total) was 9.7. The Baseline ELF, Mean (SD) (FALD, Total (U+ and U−)) was 10.4, the Week 52 ELF, Mean (SD) (FALD, Total (U+ and U−)) was 9.8 and the “ELF Percent Change: Week 52-Baseline, Mean (SD)” value (from here on “ELF Percent Change … (SD)”) (FALD, Total, p <0.0001 vs 0) was −6.8 (7.69) %. The Week 52 ELF, Median (FALD, cohort U+) was 9.6, the Baseline ELF, Mean (SD) (FALD, cohort U+ (6 months udenafil in FUEL before baseline)) was 10.5 and the Baseline ELF, Mean (SD) (FALD, cohort U+ (6 months udenafil in FUEL before baseline), listed as udenafil) was 10.5. The Week 52 ELF, Mean (SD) (FALD, cohort U+ (18 months udenafil, 87.5 mg twice daily)) was 9.7, the Week 52 ELF, Mean (SD) (FALD, cohort U+ (18 months udenafil, 87.5 mg twice daily), listed as udenafil) was 9.7 and the “Patients with improved ELF scores” value [13] was “About 94%”. For the same molecule, the “Subjects with a decrease (improvement) in ELF score” value [13] was “all but 2 of 31”, the “ELF Percent Change … (SD)” value (FALD, cohort U+, p <0.0001 vs 0) was −8.0 (5.56) % and the “Average improvement of ELF score, baseline to week 52” value (FALD, cohort U+, p=0.0001) was “approximately 8%”. The “ELF Percent Change: Week 52-Baseline, Median” value (FALD, cohort U−) was −6.1%, the Week 52 ELF, Median (FALD, cohort U−) was 9.9 and the Week 52 ELF, Mean (SD) (FALD, cohort U− (1 year udenafil, 87.5 mg twice daily)) was 9.8. The Week 52 ELF, Mean (SD) (FALD, cohort U− (1 year udenafil, 87.5 mg twice daily), listed as udenafil) was 9.8, the “Subjects with a decrease (improvement) in ELF score, number” value (FALD, cohort U− (52 weeks udenafil), of 40 subjects) was “about 30” and the Baseline ELF, Mean (SD) (FALD, cohort U− (udenafil-naïve at baseline)) was 10.3. For the same molecule, the Baseline ELF, Mean (SD) (FALD, cohort U− (udenafil-naïve at baseline), listed as udenafil) was 10.3, the “Average improvement of ELF score, baseline to week 52” value (FALD, cohort U−, based on paired data) was “about 5.9%” and the “ELF Percent Change … (SD)” value (FALD, cohort U−, p 0.0001 vs 0) was −5.9 (8.98) %. The “Subjects with an improved ELF score” value (FALD, overall (U+ and U−)) was “about 84%”.
